# Data as given in US4477443A, “Tylosin derivatives, their preparation and pharmaceutical compositions containing them” (Zaidan Hojin Biselbutsu Kagaku Kenkyu Kai (Microbial …, priority 1981, dated 1984).
# Read-outs that look alike come from different tables or passages of the source.
# Experiments:
# Assay type in all cases: cell-based
# [1] = test system: Staph. epidermidis IID 866; assay: antimicrobial activity (MIC), Table II; settings: Staphylococcus epidermidis, IID866
# B. subtilis ATCC 6633 = assay: antimicrobial activity (MIC), Table II; settings: Bacillus subtilis, ATCC6633; B. subtilis ATCC 6633; read-out: MIC
# Staph. aureus 226 = assay: antimicrobial activity (MIC), Table II; settings: Staphylococcus aureus
# B. cereus = assay: antimicrobial activity (MIC), Table II; settings: Bacillus cereus; B. cereus; read-out: MIC
# Staph. aureus ATCC 6538P = assay: antimicrobial activity (MIC), Table II; settings: Staphylococcus aureus, ATCC6538P
# Staph. aureus KC-11 = assay: antimicrobial activity (MIC), Table II; settings: Staphylococcus aureus, KC11
# [2] = test system: Staph. epidermidis IID 886; assay: antimicrobial activity (MIC), Table II; settings: Staphylococcus epidermidis, IID886
# E. coli K-12 R-5 = assay: antimicrobial activity (MIC), Table I; settings: Escherichia coli, K12R5; E. coli K-12 R-5; read-out: MIC
# [3] = test system: Shigella dysenteriae JS 11910; assay: antimicrobial activity (MIC), Table I; settings: JS11910
# B. subtilis NRRL B-558 = assay: antimicrobial activity (MIC), Table I; settings: Bacillus subtilis, NRRLB558; B. subtilis NRRL B-558; read-out: MIC
# Sarcina lutea PCI 1001 = assay: antimicrobial activity (MIC), Table I; settings: Micrococcus luteus, PCI1001; Sarcina lutea PCI 1001; read-out: MIC
# E. coli K-12 ML 1410 = assay: antimicrobial activity (MIC), Table I; settings: Escherichia coli, K12ML1410
# Coryn. bovis 1810 = assay: antimicrobial activity (MIC), Table I; settings: Corynebacterium bovis; Coryn. bovis 1810; read-out: MIC
# Staph. aureus 209 P = assay: antimicrobial activity (MIC), Table I; settings: Staphylococcus aureus; Staph. aureus 209 P; read-out: MIC
# Staph. aureus 193 = assay: antimicrobial activity (MIC), Table I; settings: Staphylococcus aureus; Staph. aureus 193; read-out: MIC
# Sal. enteritidis 1891 = assay: antimicrobial activity (MIC), Table I; settings: Salmonella enterica; Sal. enteritidis 1891; read-out: MIC
# Staph. aureus MS 9861 = assay: antimicrobial activity (MIC), Table I; settings: Staphylococcus aureus, MS9861; Staph. aureus MS 9861; read-out: MIC
# E. coli K-12 = assay: antimicrobial activity (MIC), Table I; settings: Escherichia coli, K12; E. coli K-12; read-out: MIC
# E. coli NIHJ = assay: antimicrobial activity (MIC), Table I; settings: Escherichia coli; E. coli NIHJ; read-out: MIC
# Pro. vulgaris OX-19 = assay: antimicrobial activity (MIC), Table I; settings: Proteus vulgaris, OX19; Pro. vulgaris OX-19; read-out: MIC
# Kleb. pneumoniae PCI 602 = assay: antimicrobial activity (MIC), Table I; settings: Klebsiella pneumoniae, PCI602; Kleb. pneumoniae PCI 602; read-out: MIC
# [4] = Staph. aureus 226, read-out: MIC
# [5] = Staph. aureus ATCC 6538P, read-out: MIC
# [6] = Staph. aureus KC-11, read-out: MIC
SMILES,MIC [1],MIC (B. subtilis ATCC 6633),MIC (Staph. aureus 226; [4]),MIC (B. cereus),MIC (Staph. aureus ATCC 6538P; [5]),MIC (Staph. aureus KC-11; [6]),MIC [2],also measured
"CCC1OC(=O)CC(O)C(C)C(OC2OC(C)CC(N(C)C)C2O)C(CC=O)CC(C)C(=O)C=CC(C)=CC1CN(CC)C(=O)c1ccco1 (stereo not drawn) [Example 45, 23,4'-dideoxy-23-N-(2-furoyl)ethylaminomycaminosyl tylonolide]",0.39 µg/mL,0.39 µg/mL,0.78 µg/mL,0.39 µg/mL,0.78 µg/mL,0.78 µg/mL,–,–
"CCC1OC(=O)CC(O)C(C)C(OC2OC(C)C(O)C(N(C)C)C2O)C(CC=O)CC(C)C(=O)C=CC(C)=CC1CN1CCC(C)CC1 (stereo not drawn) [Example 89, 23-deoxy-23-(4-methylpiperidino)mycaminosyl tylonolide]",–,0.78 µg/mL,0.78 µg/mL,–,0.78 µg/mL,0.78 µg/mL,0.78 µg/mL,–
"CCC1OC(=O)CC(O)C(C)C(OC2OC(C)CC(N(C)C)C2O)C(CC=O)CC(C)C(=O)C=CC(C)=CC1CNC(C)(C)C (stereo not drawn) [Example 22, 23,4'-dideoxy-23-(t-butylamino)mycaminosyl tylonolide]",0.78 µg/mL,0.78 µg/mL,0.78 µg/mL,0.39 µg/mL,0.78 µg/mL,0.78 µg/mL,–,–
"CCC1OC(=O)CC(O)C(C)C(OC2OC(C)CC(N(C)C)C2O)C(CC=O)CC(C)C(=O)C=CC(C)=CC1CN(CC)CCO (stereo not drawn) [Example 67, 23,4'-dideoxy-23-N-ethyl(2-hydroxyethyl)aminomycaminosyl tylonolide]",–,0.78 µg/mL,0.78 µg/mL,0.39 µg/mL,0.78 µg/mL,0.78 µg/mL,0.78 µg/mL,–
"CCC1OC(=O)CC(O)C(C)C(OC2OC(C)CC(N(C)C)C2O)C(CC=O)CC(C)C(=O)C=CC(C)=CC1CNCC(C)(C)C (stereo not drawn) [Example 23, 23,4'-dideoxy-23-neopentylaminocaminosyl tylonolide]",0.78 µg/mL,1.56 µg/mL,0.78 µg/mL,0.78 µg/mL,0.78 µg/mL,0.78 µg/mL,–,–
"CCC1OC(=O)CC(O)C(C)C(OC2OC(C)C(O)C(N(C)C)C2O)C(CC=O)CC(C)C(=O)C=CC(C)=CC1CN(C)C (stereo not drawn) [Example 4, 23-deoxy-23-dimethylaminomycaminosyl tylonolide]",–,–,–,–,–,–,–,"MIC (E. coli K-12 R-5): 1.56 µg/mL; MIC [3]: 0.39 µg/mL; MIC (B. subtilis NRRL B-558): 0.78 µg/mL; MIC (Sarcina lutea PCI 1001): < 0.2 µg/mL; MIC (E. coli K-12 ML 1410; E. coli K-12 ML 1410, read-out: MIC): 1.56 µg/mL; MIC (Coryn. bovis 1810): 0.78 µg/mL; MIC (Staph. aureus 209 P): 0.2 µg/mL; MIC (Staph. aureus 193): 0.39 µg/mL; MIC (Sal. enteritidis 1891): 1.56 µg/mL; MIC (Staph. aureus MS 9861): 1.56 µg/mL; MIC (E. coli K-12): 1.56 µg/mL; MIC (E. coli NIHJ): 0.78 µg/mL; MIC (Pro. vulgaris OX-19): 1.56 µg/mL; MIC (Kleb. pneumoniae PCI 602): 0.78 µg/mL"
"CCC1OC(=O)CC(O)C(C)C(OC2OC(C)CC(N(C)C)C2O)C(CC=O)CC(C)C(=O)C=CC(C)=CC1CN(CC)CC(F)(F)F (stereo not drawn) [Example 74, 23,4'-Dideoxy-23-N-(2,2,2-trifluoroethyl)ethylaminomycaminosyl tylonolide]",–,0.78 µg/mL,0.78 µg/mL,0.78 µg/mL,0.78 µg/mL,0.78 µg/mL,0.78 µg/mL,–
"CCC1OC(=O)CC(O)C(C)C(OC2OC(C)CC(N(C)C)C2O)C(CC=O)CC(C)C(=O)C=CC(C)=CC1CNC1CC1 (stereo not drawn) [Example 96, 23,4'-dideoxy-23-cyclopropylaminomycaminosyl tylonolide]",–,0.78 µg/mL,0.78 µg/mL,0.39 µg/mL,–,0.78 µg/mL,0.39 µg/mL,MIC (Staph. aureus ATCC 6538P): 0.39 µg/mL
"CCC1OC(=O)CC(O)C(C)C(OC2OC(C)CC(N(C)C)C2O)C(CC=O)CC(C)C(=O)C=CC(C)=CC1COC(=O)CN(C)C (stereo not drawn) [Example 51, 23-O-dimethylaminoacetyl-4'-deoxymycaminosyltylonolide]",0.39 µg/mL,0.78 µg/mL,0.78 µg/mL,0.39 µg/mL,0.78 µg/mL,0.78 µg/mL,–,–
"CCC1OC(=O)CC(O)C(C)C(OC2OC(C)CC(N(C)C)C2O)C(CC=O)CC(C)C(=O)C=CC(C)=CC1CN(CC)C(C)=O (stereo not drawn) [Example 47, 23-N-acetylethylamino-23,4'-dideoxymycaminosyl tylonolide]",0.78 µg/mL,0.78 µg/mL,1.56 µg/mL,0.39 µg/mL,0.78 µg/mL,0.78 µg/mL,–,–
"CCC1OC(=O)CC(O)C(C)C(OC2OC(C)C(O)C(N(C)C)C2O)C(CC=O)CC(C)C(=O)C=CC(C)=CC1CN1CCCCC1C (stereo not drawn) [Example 87, 23-deoxy-23-(2-methylpiperidino)mycaminosyl tylonolide]",–,0.78 µg/mL,0.78 µg/mL,–,0.78 µg/mL,0.78 µg/mL,0.78 µg/mL,–
"CCC1OC(=O)CC(O)C(C)C(OC2OC(C)CC(N(C)C)C2O)C(CC=O)CC(C)C(=O)C=CC(C)=CC1COC(=O)CN1CCCC1 (stereo not drawn) [Example 52, 23-O-pyrrolidinoacetyl-4'-deoxymycaminosyl tylonolide]",0.78 µg/mL,1.56 µg/mL,0.78 µg/mL,1.56 µg/mL,0.78 µg/mL,0.78 µg/mL,–,–
"CCC(=O)N(CC)CC1C=C(C)C=CC(=O)C(C)CC(CC=O)C(OC2OC(C)C(O)C(N(C)C)C2O)C(C)C(O)CC(=O)OC1CC (stereo not drawn) [Example 42, 23-deoxy-23-N-ethylpropionylaminomycaminosyl tylonolide]",0.78 µg/mL,0.78 µg/mL,0.78 µg/mL,0.39 µg/mL,0.78 µg/mL,1.56 µg/mL,–,–
"CCC1OC(=O)CC(O)C(C)C(OC2OC(C)C(O)C(N(C)C)C2O)C(CC=O)CC(C)C(=O)C=CC(C)=CC1CN1CCCCCC1 (stereo not drawn) [Example 24, 23-deoxy-23-hexamethyleneiminomycaminosyl tylonolide]",0.39 µg/mL,0.78 µg/mL,–,0.39 µg/mL,–,0.78 µg/mL,–,MIC (Staph. aureus 226; 226): ≤ 0.2 µg/mL; MIC (Staph. aureus ATCC 6538P): 0.39 µg/mL
"CCC1OC(=O)CC(O)C(C)C(OC2OC(C)CC(N(C)C)C2O)C(CC=O)CC(C)C(=O)C=CC(C)=CC1CNC(C)C (stereo not drawn) [Example 21, 23,4'-dideoxy-23-isopropylaminomycaminosyl tylonolide]",0.78 µg/mL,0.78 µg/mL,0.78 µg/mL,0.39 µg/mL,0.78 µg/mL,0.78 µg/mL,–,–
"CCC1OC(=O)CC(O)C(C)C(OC2OC(C)C(O)C(N(C)C)C2O)C(CC=O)CC(C)C(=O)C=CC(C)=CC1CN1CCCC(C)C1 (stereo not drawn) [Example 88, 23-deoxy-23-(3-methylpiperidino)mycaminosyl tylonolide]",–,0.78 µg/mL,0.78 µg/mL,–,0.78 µg/mL,0.78 µg/mL,0.39 µg/mL,–
"CCC1OC(=O)CC(O)C(C)C(OC2OC(C)CC(N(C)C)C2O)C(CC=O)CC(C)C(=O)C=CC(C)=CC1CN(CC)C(=O)c1cccnc1 (stereo not drawn) [Example 46, 23,4'-dideoxy-23-N-nicotinoylethylaminomycaminosyl tylonolide]",0.78 µg/mL,1.56 µg/mL,1.56 µg/mL,0.39 µg/mL,1.56 µg/mL,1.56 µg/mL,–,–
"CCC1OC(=O)CC(O)C(C)C(OC2OC(C)CC(N(C)C)C2O)C(CC=O)CC(C)C(=O)C=CC(C)=CC1CN1CCCC1 (stereo not drawn) [Example 16, 23,4'-dideoxy-23-pyrrolidinomycaminosyl tylonolide]",–,–,–,–,–,–,–,MIC (E. coli K-12 R-5): 1.56 µg/mL; MIC [3]: < 0.2 µg/mL; MIC (B. subtilis NRRL B-558): 0.78 µg/mL; MIC (Sarcina lutea PCI 1001): < 0.2 µg/mL; MIC (E. coli K-12 ML 1410): 3.12 µg/mL; MIC (Coryn. bovis 1810): 0.39 µg/mL; MIC (Staph. aureus 209 P): 0.39 µg/mL; MIC (Staph. aureus 193): 1.56 µg/mL; MIC (Sal. enteritidis 1891): 0.39 µg/mL; MIC (Staph. aureus MS 9861): 3.12 µg/mL; MIC (E. coli K-12): 3.12 µg/mL; MIC (E. coli NIHJ): 1.56 µg/mL; MIC (Pro. vulgaris OX-19): 1.56 µg/mL; MIC (Kleb. pneumoniae PCI 602): 0.78 µg/mL
"CCC1OC(=O)CC(O)C(C)C(OC2OC(C)C(O)C(N(C)C)C2O)C(CC=O)CC(C)C(=O)C=CC(C)=CC1CN1CCCCCCC1 (stereo not drawn) [Example 90, 23-deoxy-23-heptamethyleneiminomycaminosyl tylonolide]",–,0.39 µg/mL,–,–,–,–,0.39 µg/mL,MIC (Staph. aureus 226; 226): 0.39 µg/mL; MIC (Staph. aureus ATCC 6538P): 0.39 µg/mL; MIC (Staph. aureus KC-11): 0.39 µg/mL
"CCC1OC(=O)CC(O)C(C)C(OC2OC(C)C(O)C(N(C)C)C2O)C(CC=O)CC(C)C(=O)C=CC(C)=CC1CN(CC)C(=O)c1ccco1 (stereo not drawn) [Example 43, 23-deoxy-23-N-(2-furoyl)ethylaminomycaminosyl tylonolide]",0.78 µg/mL,0.78 µg/mL,0.78 µg/mL,0.39 µg/mL,0.78 µg/mL,0.78 µg/mL,–,–
